Data reported in US9556378B2, “Chelating agent precursors, fluids containing them, and their use” (AKZO NOBEL CHEMICALS INTERNATIONAL B.V., priority 2011, dated 2017).

Assays:
Assay type in all cases: physicochemical
[1] = Surface tension, bubble pressure tensiometer; conditions: 25° C.
Protocol: (§1) In addition, where possible, the following physical properties of the chelate esters were determined at 25° C.: • Viscosity in mPas • Surface tension in mN/m • Density in kg/m^3
(§2) The viscosity was determined with a Brookfield DV-II viscometer equipped with spindle 25, which is suitable to measure high-viscous liquids. The principle of operation of the DV-II is to drive a specific spindle which is immersed in the test fluid. The viscous drag of the fluid against the spindle is measured by a calibrated spring. The viscosity is calculated from the rotational speed, type, and the torque of the spindle. In addition, the surface tension was determined with a bubble pressure tensiometer. The tensiometer produces gas bubbles at a constant rate and blows them through a capillary which is submerged in the sample liquid. The pressure (P) inside of the bubble continues to increase and the maximum value is obtained when the bubble has the completely hemispherical shape whose radius corresponds exactly to the radius of the capillary.
By following each step of the bubble formation, change of bubble radius, and the corresponding pressure, the dynamic surface tension can be determined using the Laplace equation in the reduced form for spherical bubble shape within the liquid, equation: σ=(ΔPmax·Rcap)/2 where: σ=dynamic surface tension ΔPmax=maximum pressure drop Rcap=radius of capillary

[2] = Viscosity of chelate esters, Brookfield DV-II viscometer, spindle 25; conditions: 25° C.
Protocol: as §1, §2

[3] = Density, gravimetric (0.50 ml in weighted pipette); conditions: for Density: 25° C.; for density compared with water (in words): not measurable for the highly viscous esters
Protocol: as §1
The density was determined gravimetrically by slowly sucking up exactly 0.50 ml of the chelate ester in a weighted pipette and by weighing the total weight of the pipette and the chelate-ester, the weight of 0.50 ml of chelate ester could be determined.

[4] = Solubility of chelate ester in water
[5] = Hydrolysis rate of chelate esters followed by Fe-TSV (released chelate acid); conditions: for rate of hydrolysis (in words): 20 wt % ester in demi water, 90° C., Fe-TSV, FIG. 1-3; for effect of pH on hydrolysis rate (release of chelating agent): pH adjusted with caustic to 7 versus ~1, FIG. 4; for solubility of the chelate acid compared with EDTA acid: observed on hydrolysis of the esters, solid EDTA is formed
Protocol: (§3) In several experiments the hydrolysis of the chelate esters of Example 2 was investigated. First, the hydrolysis rate of the chelate esters was determined with ^1H and ^13C-NMR. […] Secondly, the hydrolysis rate was followed by determination of the Fe-TSV, which gives the concentration of the released chelate acid. To determine the Fe-TSV the chelate ester was added to demi water in a 5 ml glass vial, resulting in an ester concentration of 20 wt %. The mixture was continuously homogenized by shaking and a treatment in the ultrasonic bath. Subsequently, the vial was placed in a stove at 90° C. to simulate well conditions. After certain time intervals a sample was taken and analyzed on Fe-TSV. The percentage of hydrolysis is defined by:
The calculated chelate concentration at the start is calculated from the intake of the ester. The value is corrected for the purity as measured by NMR, assuming a 100% conversion of the corresponding chelate.

[6] = Hydrolysis rate of chelate esters by 1H and 13C-NMR; conditions: 70° C.
Protocol: as §3, with “Fe-TSV.” for “Fe-TSV. The percentage of hydrolysis is defined by:”

[7] = pH of the ester in water
[8] = 1 wt % / 1% slurry in water, product as formed (acidic)

Surface tension [1] [mN/m] | Viscosity [2] | Density [3] [g/mL] | Soluble in water (pH = 0.5) [4] | Compound | also measured
52.6 | 8,100 mPas | > 1 | no (2 phases) | CCCCOC(=O)CN(CCN(CC(=O)OCCCC)CC(=O)OCCCC)CC(=O)OCCCC [EDTA 4 butyl ester, EDTA-tetrabutyl ester, reference compound] | density compared with water (in words) [3]: clearly higher than water
 |  |  | Yes | COC(=O)CN(CCN(CC(=O)OC)CC(=O)OC)CC(=O)OC [EDTA 4 methyl ester, EDTA-tetramethyl ester, reference compound] | rate of hydrolysis (in words) [5]: hydrolyzed much faster than the corresponding GLDA or MGDA-methyl ester; Soluble in water (pH = ~7) [4]: Yes
51.3 | 260,000 mPas | > 1 | Yes | CCCOC(=O)CN(CCN(CC(=O)OCCC)CC(=O)OCCC)CC(=O)OCCC [EDTA 4 propyl ester, EDTA-tetrapropyl ester, reference compound] | effect of pH on hydrolysis rate (release of chelating agent) [5]: decreased slightly with increasing pH; density compared with water (in words) [3]: clearly higher than water; Soluble in water (pH = ~7) [4]: no (2 phases)
47.8 | 67 mPas | 1.06 | no (2 phases) | CCCCOCCOC(=O)CCC(C(=O)OCCOCCCC)N(CC(=O)OCCOCCCC)CC(=O)OCCOCCCC (stereo not shown) [GLDA 4 EGMBE, GLDA-tetraEMGBE ester] | 
41.3 | 38 mPas | 1.04 | no (2 phases) | CCCCOC(=O)CCC(C(=O)OCCCC)N(CC(=O)OCCCC)CC(=O)OCCCC (stereo not shown) [GLDA 4 butyl ester, GLDA-tetrabutyl ester] | 
 |  |  | Yes | COC(=O)CCC(C(=O)OC)N(CC(=O)OC)CC(=O)OC (stereo not shown) [GLDA 4 methyl ester, GLDA-tetramethyl ester] | rate of hydrolysis (in words) [5]: nearly the same speed of hydrolysis; time to almost complete hydrolysis [6]: ~2 days
69.2 | 178 mPas | 1.11 | no (2 phases) | CCCOC(=O)CCC(C(=O)OCCC)N(CC(=O)OCCC)CC(=O)OCCC (stereo not shown) [GLDA 4 propyl ester, GLDA-tetrapropyl ester] | effect of pH on hydrolysis rate (release of chelating agent) [5]: decreased slightly with increasing pH; Soluble in water (pH = ~7) [4]: no (2 phases)
 |  |  |  | CCOC(=O)CCC(C(=O)OCC)N(CC(=O)OCC)CC(=O)OCC (stereo not shown) [GLDA tetra ethyl ester] | pH ([7]; 1% slurry in water, less acidic product after treatment with 1 eq Na2CO3): ~9; pH [7, 8]: 1.8
 |  |  |  | O=C(O)CC[C@@H](C(=O)O)N(CC(=O)O)CC(=O)O [GLDA, glutamic acid N,N-diacetic acid] | solubility of the chelate acid compared with EDTA acid [5]: significantly higher
 |  |  | Yes | COC(=O)CN(CC(=O)OC)C(C)C(=O)OC (stereo not shown) [MGDA 3 methyl ester, MGDA-trimethyl ester] | rate of hydrolysis (in words) [5]: nearly the same speed of hydrolysis; time to almost complete hydrolysis [6]: ~2 days
 |  |  |  | CC(C(=O)O)N(CC(=O)O)CC(=O)O (stereo not shown) [MGDA, methylglycine N,N-diacetic acid] | solubility of the chelate acid compared with EDTA acid [5]: significantly higher
 |  |  |  | GLDA Mono Ethyl Ester | pH [7, 8]: 1.8
